Data set [1] concerns K562 cells. The data set is described as follows: cells. The settings on record: Homo sapiens, K562, 24 h, read-out: inhibition rate (IR%) on K562 cells.
Data set [2] deals with HL-60 cells. The data set can be described thus: cells. The settings on record: Homo sapiens, HL-60, 24 h, read-out: inhibition rate (IR%) on HL-60 cells.
Data set [3] has as its system HeLa cells. The data set can be described thus: cells. The settings on record: Homo sapiens, 24 h, read-out: inhibition rate (IR%) on HeLa cells.
The subject of data set [4] is BGC-823 cells. The data set is described as follows: cells. The settings on record: Homo sapiens, BGC-823, 24 h, read-out: inhibition rate (IR%) on BGC-823 cells.
Another data set relates to MCF-7 cells. The data set is described as follows: cells. The settings on record: Homo sapiens, MCF7, 24 h, read-out: inhibition rate (IR%) on MCF-7 cells.
In data set [5] the test system is K562 cells. Further details: inhibition rate (IR%) on K562 cells: dose or concentration left out as unconfirmed.
The subject of data set [6] is HL-60 cells. The settings on record: MTT, 24 h.
In data set [7] the test system is HeLa cells. The settings on record: MTT, 24 h.
Data set [8] relates to BGC-823 cells. The settings on record: MTT, 24 h.
Data set [9] deals with murine leukemia P388 and L1210, and human epidermoid carcinoma KB cells. The settings on record: one range for both compounds and three cell lines; cited from earlier work. The method, then:
(§1) Fellutamide A and B (8) were originally identified for their cytotoxic properties on murine leukemia P388 and L1210, and human epidermoid carcinoma KB cells with IC50 values 0.1–0.8 µg/mL [15].

For data set [10], the system named is human prostate carcinoma PC-3 cells. The settings on record: read-out: IC50, cytotoxic against PC-3 cells; cited from earlier work. As to the method: as §1
Setting [11] is: from IR% at different concentrations.
[12] abbreviates: MTT, 24 h at 37 °C, OD 570 nm, OD means of three wells.

Read-outs that look alike come from different tables or passages of the source.

For the compound `O=c1[nH]cc(F)c(=O)[nH]1` [Compound 5-FU, 5-fluorouracil], the inhibition at 100 µg/mL with K562 cells [1] was determined as 48.5%; in the data set on HL-60 cells [2], 38.2%; in the data set with HeLa cells [3], 37.4%; in the data set on BGC-823 cells [4] it was 47.8%; with MCF-7 cells, 47.4%.
As for `CCCCCCCCC[C@@H](O)CC(=O)N[C@@H](CC(N)=O)C(=O)N[C@@H](CCC(N)=O)C(=O)N[C@H](C=O)CC(C)C` [Compound 8, Fellutamide B], the IC50 came out at 52.5 µM with K562 cells [5] (24 h); 108 µM in the data set with HL-60 cells [6] (read-out: half-inhibitory concentration (IC50) for HL-60, value in brackets, molar); 107 µM in the data set on HeLa cells [7] (read-out: half-inhibitory concentration (IC50) for HeLa, value in brackets, molar); 140 µM in the data set with BGC-823 cells [8] (read-out: half-inhibitory concentration (IC50) for BGC-823, value in brackets, molar). The “half-inhibitory concentration (IC50) for K562” value with K562 cells [5] (MTT, 24 h, from IR% at different concentrations) is reported as 29.1 µg/mL. Moreover, in the data set on HL-60 cells [6] (setting [11]), the “half-inhibitory concentration (IC50) for HL-60” value turned out to be 59.9 µg/mL. Moreover, the “half-inhibitory concentration (IC50) for HeLa” value with HeLa cells [7] (setting [11]) is listed as 59.5 µg/mL. For the same compound, in the data set on BGC-823 cells [8] (setting [11]), the “half-inhibitory concentration (IC50) for BGC-823” value was 77.9 µg/mL. Also, the “IC50, cytotoxic properties on P388, L1210 and KB cells” value in data set [9] is 0.1 to 0.8 µg/mL.
On to `CCCCC[C@H](OC)c1c(O)cc2c(c1O)C(=O)c1c(O)cc(O)cc1C2=O` [Compound 10, 1′-O-Methylaverantin], for which the “inhibition rate (IR%) on K562 cells” value with K562 cells [5] (setting [12]) amounted to 11.6%.
For `CCCCC[C@H](O)c1c(O)cc2c(c1O)C(=O)c1c(O)cc(O)cc1C2=O` [Compound 11, Averantin], the “inhibition rate (IR%) on K562 cells” value in the data set on K562 cells [5] (setting [12]) is on record as 51.9%.
As for `C[C@]12CCC[C@H](O1)c1c(cc3c(c1O)C(=O)c1c(O)cc(O)cc1C3=O)O2` [Compound 12, Averufin], the “inhibition rate (IR%) on K562 cells” value in the data set on K562 cells [5] (setting [12]) was 37.9%.
Same read-out and setting: to `C[C@]12CC[C@H](O)[C@H](O1)c1c(cc3c(c1O)C(=O)c1c(O)cc(O)cc1C3=O)O2` [Compound 13, Nidurufin] belongs 25.5%.
As for `COc1cc2c(c3oc4cccc(O)c4c(=O)c13)[C@@H]1C=CO[C@@H]1O2` [Compound 14, Sterigmatocystin], the “inhibition rate (IR%) on K562 cells” value in the data set on K562 cells [5] is 37.5%.
Take Fellutamide A [reference compound]: the “IC50, cytotoxic properties on P388, L1210 and KB cells” value in data set [9] is 0.1 to 0.8 µg/mL.
Regarding fellutamide D, the IC50 in [10] was 160 nM.
For the compound fellutamide E, in data set [10], the IC50 was 440 nM.

These data come from paper PMC4012460, “Seven New and Two Known Lipopeptides as well as Five Known Polyketides: The Activated Production of Silent Metabolites in a Marine-Derived Fungus by Chemical Mutagenesis Strategy Using Diethyl Sulphate” (Marine Drugs, 2014).
